Values of other authors in PMC12308805, “Ultrahigh-Throughput Virtual Screening Strategies against PPI Targets: A Case Study of STAT Inhibitors” (Journal of Chemical Information and Modeling, 2025).
Numbered stars: 1 amine (or outer) side, 2 acyl side, 3 side chain; on linkers, the order of the positions; unused ones are H or OH. Square brackets hold non-standard residues; d marks the D form. Peptide text beside a SMILES is read from it. * marks the point of attachment. X2 = O=C([C@H](Cc1ccc(Cc2nn[nH]n2)cc1)N[*:1])[*:2]; X5 = O=C([C@@H]1[C@@H]2C[C@@H]2CN1[*:1])[*:2]; pY = N[C@@H](Cc1ccc(OP(=O)(O)O)cc1)C(=O)O; aThr = C[C@H](O)[C@H](N)C(=O)O; Isobutyryl = CC(C)C(=O)*

system: STAT3; settings: cited from earlier work

| SMILES | Type (known STAT3 active) |
| --- | --- |
| CC(=O)N[C@@H](Cc1ccc(OP(=O)(O)O)cc1)C(=O)N[C@@H](CC(C)C)C(=O)N1C[C@H]2C[C@H]2[C@H]1C(=O)N[C@@H](CCC(N)=O)C(=O)N[C@H](C(N)=O)[C@@H](C)O [CHEMBL436319] (Ac-[pY]L[X5]QT-NH2) | Active |

same assay, conditions: sheet 6QHD_actives_decoys, retrospective screening set for STAT3 SH2 domain (PDB 6QHD); decoys are presumed inactives, not tested; ref DUD-E; cited from earlier work

| SMILES | Type |
| --- | --- |
| O=C(CS[C@@H]1NN[C@H](NCc2ccco2)S1)N[C@H](Cc1c[nH]c2ccccc12)C(=O)O [Decoy825] | Inactive (Decoy) |
| CCOC(=O)[C@@](NC(=O)c1cccc(Cl)c1)(Nc1ccc(S(=O)(=O)Nc2cc(C)nc(C)n2)cc1)C(F)(F)F [Decoy740] | Inactive (Decoy) |
| Cc1nnc(CSc2nnc(NC(=O)CSc3n[nH]c(N/N=C/c4ccncc4)n3)s2)o1 [Decoy801] | Inactive (Decoy) |
| CCOc1ccc(NC(=O)CCC(=O)NNC(=S)NC(=O)c2cc([N+](=O)[O-])cc([N+](=O)[O-])c2)cc1 [Decoy733] | Inactive (Decoy) |
| COc1c([C@@H]2OC[C@H](OC(C)=O)[C@@H](OC(C)=O)[C@H]2OC(C)=O)c(O)cc2oc(-c3ccc(O[C@H]4O[C@@H](CO)[C@@H](O)[C@@H](O)[C@H]4O)cc3)cc(=O)c12 [Decoy774] | Inactive (Decoy) |
| CNC(=O)[C@H](CC(C)C)NC(=O)[C@H](Cc1c[nH]cn1)NC(=O)[C@@H](C)NC(=O)[C@@H](NC(=O)[C@H](C)NC(=O)[C@H](Cc1c[nH]c2ccccc12)NC(=O)[C@H](Cc1cnc[nH]1)NC(=O)C(C)C)C(C)C [Decoy805] (Isobutyryl-HWAV[dA]HL-NHMe) | Inactive (Decoy) |
| CCOc1ccc(S(=O)(=O)Nc2ccc(C(=O)N/N=C(\C)c3ccc(OC)cc3O)cc2)cc1 [Decoy858] | Inactive (Decoy) |
| CCC(CC)C(=O)Nc1cccc(C(=O)Nc2ccc(S(=O)(=O)Nc3nccc(C)n3)cc2)c1 [Decoy917] | Inactive (Decoy) |
| CCOC(=O)c1sc(NC(=O)CSc2n[nH]c(N/N=C/c3ccc(C)cc3)n2)c(C#N)c1C [Decoy916] | Inactive (Decoy) |
| COc1cc(CNC(=O)CSc2n[nH]c(N/N=C/c3cc(OC)c(O)cc3[N+](=O)[O-])n2)cc(OC)c1 [Decoy737] | Inactive (Decoy) |
| CCOc1ccc(-n2c(SCC(=O)N/N=C/c3ccc(OC)c(OC)c3OC)nnc2-c2ccccc2)cc1 [Decoy778] | Inactive (Decoy) |
| Cc1cc(NC(=O)CSc2nncn2C)ccc1-c1ccc(NC(=O)CSc2nncn2C)cc1C [Decoy777] | Inactive (Decoy) |

same assay, conditions: sheet 6QHD_actives_decoys; known STAT3 actives of the retrospective screening set; ref ChEMBL / literature; cited from earlier work

| SMILES | Type (known STAT3 active) |
| --- | --- |
| CC(C)C[C@H](NC(=O)[C@H](Cc1ccc(O)cc1)NC(=O)[C@H]1CCCN1C(=O)CN)C(=O)N1CCC[C@H]1C(=O)N[C@@H](CCC(N)=O)C(=O)N[C@H](C(=O)N[C@H](C(N)=O)C(C)C)[C@H](C)O [CHEMBL2367507] (H-G[dP]YLPQ[aThr]V-NH2) | Active |
| CC(=O)N[C@@H](Cc1ccc(Cc2nn[nH]n2)cc1)C(=O)N[C@@H](CC(C)C)C(=O)N1CCC[C@H]1C(=O)N[C@@H](CCC(N)=O)C(=O)N[C@H](C(=O)N[C@H](C(=O)O)C(C)C)[C@@H](C)O [CHEMBL233355] (Ac-[X2]LPQTV-OH) | Active |
| CC(=O)N[C@@H](Cc1ccc(OP(=O)(O)O)cc1)C(=O)N[C@@H](CC(C)C)C(=O)N1CCC[C@H]1C(=O)N[C@H](CCC(N)=O)C(N)=O [CHEMBL160658] (Ac-[pY]LP[dQ]-NH2) | Active |

same assay, conditions: sheet 6QHD_actives_decoys; retrospective screening set for STAT3 SH2 domain (PDB 6QHD); […]; ref DUD-E; cited from earlier work

| SMILES | Type |
| --- | --- |
| Cc1cc(NS(=O)(=O)c2ccc(NC(=S)NC(=O)COc3ccc([N+](=O)[O-])cc3)cc2)no1 [Decoy494] | Inactive (Decoy) |
| COc1cc([N+](=O)[O-])ccc1NC(=S)Nc1ccc(S(=O)(=O)Nc2ccc(Cl)nn2)cc1 [Decoy332] | Inactive (Decoy) |
| CCCCCC[C@H]1C(=O)O[C@@H](C)[C@@H](NC(=O)c2cccc(NC=O)c2O)C(=O)O[C@@H](C)[C@H]1OC(=O)CCC [Decoy385] | Inactive (Decoy) |
| Cc1ccc(NC(=O)CCC(=O)NNC(=O)CCCCC(=O)NNC(=O)CCC(=O)Nc2ccc(C)c(C)c2)cc1C [Decoy444] | Inactive (Decoy) |
| COc1ccc(CCN2C(=O)NC(O)=C3C2=NC(=O)[C@@]3(NS(=O)(=O)c2nnc(NC(C)=O)s2)C(F)(F)F)cc1OC [Decoy687] | Inactive (Decoy) |

same assay, conditions: sheet 6QHD_actives_decoys; retrospective screening set for STAT3 SH2 domain (PDB 6QHD); decoys generated with DUD-E and presumed inactive, not tested; ref DUD-E; cited from earlier work

| SMILES | Type |
| --- | --- |
| O=C[C@H](O)[C@@H](O)[C@H](O)[C@@H](CO)O[P@](=O)(OC[C@H]1O[C@@H](n2ccc(=O)[nH]c2=O)[C@H](O)[C@@H]1O)OP(=O)(O)O [Decoy701] | Inactive (Decoy) |
| C=C(CCO)C(=O)OC[C@@H]1OC[C@H](OC(=O)C(=C)CCO[C@@H]2O[C@H](COC(=O)C(=C)CCO)[C@@H](O)[C@H](O)[C@H]2O)[C@@H](O)[C@H]1O [Decoy491] | Inactive (Decoy) |
| Cc1cccn2c(=O)c(/C=C3\SC(=S)N(CCCCCC(=O)O)C3=O)c(NCCN3CCOCC3)nc12 [Decoy714] | Inactive (Decoy) |
| CCOC(=O)c1ccc(NC(=O)CSc2nc3cc(C(=O)OC)ccc3c(=O)n2CCN2CCOCC2)cc1 [Decoy371] | Inactive (Decoy) |
| COC(=O)c1[nH]c(C)c(C(=O)C2=C(O)C(=O)N(CCCN3CCOCC3)[C@@H]2c2cc(OC)c(OC)c(OC)c2)c1C [Decoy711] | Inactive (Decoy) |
| COC(=O)c1cc(NC(=S)/N=C(/NCCN2CCOCC2)Nc2nc(C)cc(C)n2)cc(C(=O)OC)c1 [Decoy366] | Inactive (Decoy) |
| Cc1ccc(S(=O)(=O)n2cc(/C=N\N=C3/NC(=O)[C@H](CC(=O)O)S3)c3ccccc32)cc1 [Decoy683] | Inactive (Decoy) |
| CCCCCO[C@@H]1[C@H]2OC(C)(C)O[C@H]2O[C@@H]1[C@@H](O)CO[C@@H]1O[C@H](COC(C)=O)[C@@H](OC(C)=O)[C@H](OC(C)=O)[C@H]1NC(C)=O [Decoy443] | Inactive (Decoy) |
| OCCN(CCO)C1=N[C@@H]2C(N3CCCCC3)=NC(N(CCO)CCO)=N[C@@H]2C(N2CCCCC2)=N1 [Decoy648] | Inactive (Decoy) |
| CC(=O)Nc1ccc(S(=O)(=O)N(CCN2CCOCC2)CC(=O)N(Cc2ccc3c(c2)OCO3)Cc2ccc(C)o2)cc1 [Decoy727] | Inactive (Decoy) |
| CCN(CC)C1=NC(=O)[C@@H](CC(=O)Nc2cccc(C(=O)OCC(=O)c3ccc(C)cc3)c2)S1 [Decoy495] | Inactive (Decoy) |
| CCNS(=O)(=O)c1ccc(C)c(C(=O)OCC(=O)NNC(=O)c2ccccc2Cl)c1 [Decoy518] | Inactive (Decoy) |
| C=C(CO[C@H]1[C@H](O)[C@H](CO)O[C@@H](OCC#Cc2ccc(O)c(C(=O)OC)c2)[C@H]1NC(C)=O)C(=O)OCC [Decoy507] | Inactive (Decoy) |
| C[C@@H]1O[C@H](O[C@@H]2CC[C@]3(C)[C@H](CC[C@@H]4[C@@H]3CC[C@@]3(C)[C@@H](C5=CC(=O)OC5)CC[C@]43O)C2)C[C@H](O)[C@@H]1O[C@@H]1C[C@H](O)[C@H](O[C@H]2C[C@@H](O)[C@H](O)[C@@H](C)O2)[C@H](C)O1 [Decoy470] | Inactive (Decoy) |
| CCCOc1ccc(C(=O)C2=C(O)C(=O)N(CCN3CCOCC3)[C@@H]2c2ccc(O)c(OC)c2)cc1C [Decoy564] | Inactive (Decoy) |
| Cc1ccc(S(=O)(=O)NCC(=O)N/N=C/c2ccc(OC(=O)c3ccccc3)cc2OC(=O)c2ccccc2)cc1 [Decoy602] | Inactive (Decoy) |
| CCN[C@@H](c1ccc(I)cc1)c1ccc(OC)c(Br)c1 [Decoy431] | Inactive (Decoy) |
| [H]/N=C1/[C@@H](C)[C@@H](O)[C@@](C)(O)[C@@H](CC)OC(=O)[C@H](C)[C@H](O[C@@H]2C[C@@](C)(OC)[C@H](O)[C@H](C)O2)[C@@H](C)[C@H](O[C@H]2O[C@@H](C)C[C@@H](N(C)C)[C@H]2O)[C@@](C)(O)C[C@@H]1C [Decoy389] | Inactive (Decoy) |
